Columns and labels:
[1] = rat pain model; cited from earlier work
TRPM3 = details: wild type mice vs knock-out TRPM3 mice; cited from earlier work
[2] = target: T1, mouse TRPM3α2 (mTRPM3) ion channel (Mus musculus, UniProt J9SQF3); assay: Monitoring the TRPM3 ion channel driven Ca2+ uptake (Fluo-4 AM assay); type: cell-based; details: TRPM3 overexpressing flip-in HEK293 cells, channel stimulated with Pregnenolone sulfate (PS) 50 μM
T1 construct: expressed in transfected cells; host or cells: flip-in HEK293
T1 sequence (J9SQF3 1-1709 isoform J9SQF3-12): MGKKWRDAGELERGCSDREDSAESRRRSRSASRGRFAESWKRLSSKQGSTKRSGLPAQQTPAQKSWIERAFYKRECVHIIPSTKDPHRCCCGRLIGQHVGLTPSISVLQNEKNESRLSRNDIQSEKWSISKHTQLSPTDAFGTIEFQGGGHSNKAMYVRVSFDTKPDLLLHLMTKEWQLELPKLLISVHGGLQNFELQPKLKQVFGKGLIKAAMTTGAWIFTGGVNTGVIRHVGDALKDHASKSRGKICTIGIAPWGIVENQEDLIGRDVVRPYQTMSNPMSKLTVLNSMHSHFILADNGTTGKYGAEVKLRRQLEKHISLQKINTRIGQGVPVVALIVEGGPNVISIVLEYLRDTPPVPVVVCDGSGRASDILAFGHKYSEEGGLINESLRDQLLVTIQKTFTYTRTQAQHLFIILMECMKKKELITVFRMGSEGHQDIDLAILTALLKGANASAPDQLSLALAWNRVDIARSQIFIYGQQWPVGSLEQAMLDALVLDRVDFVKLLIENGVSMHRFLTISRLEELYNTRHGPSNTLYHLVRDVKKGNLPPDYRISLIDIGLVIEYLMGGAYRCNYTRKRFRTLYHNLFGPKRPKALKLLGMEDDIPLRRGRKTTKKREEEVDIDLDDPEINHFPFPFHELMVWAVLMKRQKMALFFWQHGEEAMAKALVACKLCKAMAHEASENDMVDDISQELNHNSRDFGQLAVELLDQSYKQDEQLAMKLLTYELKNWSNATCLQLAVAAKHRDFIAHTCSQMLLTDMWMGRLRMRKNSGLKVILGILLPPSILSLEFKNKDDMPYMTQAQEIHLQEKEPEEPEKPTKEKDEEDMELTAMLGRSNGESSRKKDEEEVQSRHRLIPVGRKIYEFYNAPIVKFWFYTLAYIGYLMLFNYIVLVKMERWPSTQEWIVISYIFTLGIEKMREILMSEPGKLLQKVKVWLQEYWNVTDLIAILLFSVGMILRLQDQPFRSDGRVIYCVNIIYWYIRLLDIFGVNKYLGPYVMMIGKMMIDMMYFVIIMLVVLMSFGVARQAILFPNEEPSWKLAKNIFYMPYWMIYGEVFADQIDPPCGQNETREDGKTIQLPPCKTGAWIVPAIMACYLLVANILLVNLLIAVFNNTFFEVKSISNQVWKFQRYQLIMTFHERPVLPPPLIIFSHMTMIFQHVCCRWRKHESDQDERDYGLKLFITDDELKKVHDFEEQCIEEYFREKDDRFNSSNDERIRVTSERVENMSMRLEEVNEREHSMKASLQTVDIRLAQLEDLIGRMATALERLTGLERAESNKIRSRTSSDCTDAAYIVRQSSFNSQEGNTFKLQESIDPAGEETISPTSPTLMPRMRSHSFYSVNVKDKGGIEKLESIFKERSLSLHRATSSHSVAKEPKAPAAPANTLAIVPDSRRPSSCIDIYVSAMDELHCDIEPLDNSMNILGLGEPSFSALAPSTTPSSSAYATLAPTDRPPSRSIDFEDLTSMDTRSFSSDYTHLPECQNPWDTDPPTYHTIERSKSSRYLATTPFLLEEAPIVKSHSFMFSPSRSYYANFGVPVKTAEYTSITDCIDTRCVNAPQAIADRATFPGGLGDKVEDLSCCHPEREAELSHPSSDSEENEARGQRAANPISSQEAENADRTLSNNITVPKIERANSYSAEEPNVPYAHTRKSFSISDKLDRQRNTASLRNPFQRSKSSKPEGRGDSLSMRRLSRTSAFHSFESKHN
In short: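 Flp-In HEK293 cells overexpressing mTRPM3α2, loaded with Fluo-4 AM and added to wells holding compound plus 50 μM pregnenolone sulfate in Ca2+-containing Krebs buffer. Fluorescence (ex 485/em 535) read right after cell addition. Inhibition normalised to vehicle and positive-control inhibitor; IC50 derived.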

Compound	IC50 [2] [nM]	further results
O=C1C[C@@H](c2ccc(O)cc2)Oc2cc(O)ccc21 [Liquiritigenin]	–	mechanical and cold hyperalgesia [1]: decrease mechanical and cold hyperalgesia
pregnenolone sulfate	–	pain (TRPM3): evoked pain in wild type mice but not in knock-out TRPM3 mice
Cc1sc2ccc(OCC3CC3)cc2c1C(=O)NC(C)(C)C(N)=O [Cpd 061, 2-{[5-(cyclopropylmethoxy)-2-methyl-1-benzothiophen-3-yl]formamido}-2-methylpropanamide]	< 1000	–
CNC(=O)c1c(C)sc2ccc(OCc3ccccc3)cc12 [Cpd 134, 5-(benzyloxy)-N,2-dimethyl-1-benzothiophene-3-carboxamide]	> 20000	–
Cc1sc2ccc(OCC3CCOCC3)cc2c1C(=O)NC(C)(CO)C(N)=O (single isomer, unassigned) [Cpd 067 - En2, 3-hydroxy-2-methyl-2-({2-methyl-5-[(oxan-4-yl)methoxy]-1-benzothiophen-3-yl}formamido)propanamide]	1000 to 20000	–
Cc1sc2ccc(OCc3ccccc3F)cc2c1C(=O)NC1(CO)CCOCC1 [Cpd 081, 5-[(2-fluorophenyl)methoxy]-N-[4-(hydroxymethyl)oxan-4-yl]-2-methyl-1-benzothiophene-3-carboxamide]	< 1000	–
Cc1ncsc1COc1ccc2sc(C)c(C(=O)NC3CCNCC3(F)F)c2c1 (single isomer, unassigned) [Cpd 042 - En2, N-(3,3-difluoropiperidin-4-yl)-2-methyl-5-[(4-methyl-1,3-thiazol-5-yl)methoxy]-1-benzothiophene-3-carboxamide]	< 1000	–
O=C(NC1CC(F)(F)C1)c1c(C(F)F)sc2ccc(OCc3ccccc3)cc12 [Cpd 145, 5-(benzyloxy)-N-(3,3-difluorocyclobutyl)-2-(difluoromethyl)-1-benzothiophene-3-carboxamide]	> 20000	–
Cc1ncsc1COc1ccc2sc(C)c(C(=O)NCC3(N(C)C)CCCC3)c2c1 [Cpd 114, N-{[1-(dimethylamino)cyclopentyl]methyl}-2-methyl-5-[(4-methyl-1,3-thiazol-5-yl)methoxy]-1-benzothiophene-3-carboxamide]	< 1000	–
Cc1sc2ccc(OCc3cccnc3O)cc2c1C(=O)NC(C)(C)C(N)=O [Cpd 066, 2-({5-[(2-hydroxypyridin-3-yl)methoxy]-2-methyl-1-benzothiophen-3-yl}formamido)-2-methylpropanamide]	< 1000	–
Cc1ncsc1COc1ccc2sc(C)c(C(=O)O)c2c1 [Cpd 049, 2-methyl-5-[(4-methyl-1,3-thiazol-5-yl)methoxy]-1-benzothiophene-3-carboxylic acid]	1000 to 20000	–
Cc1sc2ccc(OCc3cccnc3C(F)(F)F)cc2c1C(=O)NC1CCN(C)C1 (stereo not drawn) [Cpd 125, 2-methyl-N-(1-methylpyrrolidin-3-yl)-5-{[2-(trifluoromethyl)pyridin-3-yl]methoxy}-1-benzothiophene-3-carboxamide]	< 1000	–
Cc1sc2ccc(OCc3ccccc3F)cc2c1C(=O)N[C@@H](CO)C(N)=O [Cpd 051, (2S)-2-({5-[(2-fluorophenyl)methoxy]-2-methyl-1-benzothiophen-3-yl}formamido)-3-hydroxypropanamide]	< 1000	–
Cc1nc(COc2ccc3sc(C)c(C(=O)NC(C)(CO)C(N)=O)c3c2)cs1 (single isomer, unassigned) [Cpd 015 - En2, 3-hydroxy-2-methyl-2-({2-methyl-5-[(2-methyl-1,3-thiazol-4-yl)methoxy]-1-benzothiophen-3-yl}formamido)propanamide]	< 1000	–
CN1CCC(NC(=O)c2c(C(F)F)sc3ccc(OCc4ccccc4)cc23)C1 (stereo not drawn) [Cpd 124, 5-(benzyloxy)-2-(difluoromethyl)-N-(1-methylpyrrolidin-3-yl)-1-benzothiophene-3-carboxamide]	1000 to 20000	–
COc1ncccc1COc1ccc2sc(C)c(C(=O)N[C@H](C)C(N)=O)c2c1 [Cpd 140, (2R)-2-({5-[(2-methoxypyridin-3-yl)methoxy]-2-methyl-1-benzothiophen-3-yl}formamido)propanamide]	< 1000	–
Cc1sc2ccc(OCc3ccccc3)cc2c1C(=O)NC1(CO)CC1 [Cpd 073, 5-(benzyloxy)-N-[1-(hydroxymethyl)cyclopropyl]-2-methyl-1-benzothiophene-3-carboxamide]	1000 to 20000	–
Cc1sc2ccc(OCc3ccccc3F)cc2c1C(=O)NC1(C(N)=O)COC1 [Cpd 087, 3-{5-[(2-fluorophenyl)methoxy]-2-methyl-1-benzothiophene-3-amido}oxetane-3-carboxamide]	< 1000	–
Cc1sc2ccc(OCc3cccnc3C(F)(F)F)cc2c1C(=O)NC1CCN(C)CC1 [Cpd 129, 2-methyl-N-(1-methylpiperidin-4-yl)-5-{[2-(trifluoromethyl)pyridin-3-yl]methoxy}-1-benzothiophene-3-carboxamide]	< 1000	–
Cc1ncsc1COc1ccc2sc(C)c(C(=O)NC3CCN(C)C3)c2c1 (stereo not drawn) [Cpd 126, 2-methyl-5-[(4-methyl-1,3-thiazol-5-yl)methoxy]-N-(1-methylpyrrolidin-3-yl)-1-benzothiophene-3-carboxamide]	< 1000	–
O=C(O)c1c(C(F)F)sc2ccc(OCc3ccccc3)cc12 [Cpd 150, 5-(benzyloxy)-2-(difluoromethyl)-1-benzothiophene-3-carboxylic acid]	< 1000	–
Cc1sc2ccc(OCc3ccccc3F)cc2c1C(=O)N[C@@H]1CCN(CCO)C1=O [Cpd 055, 5-[(2-fluorophenyl)methoxy]-N-[(3R)-1-(2-hydroxyethyl)-2-oxopyrrolidin-3-yl]-2-methyl-1-benzothiophene-3-carboxamide]	1000 to 20000	–
Cc1sc2ccc(OCc3ccccc3F)cc2c1C(=O)NC1CCNC1=O (stereo not drawn) [Cpd 093, 5-[(2-fluorophenyl)methoxy]-2-methyl-N-(2-oxopyrrolidin-3-yl)-1-benzothiophene-3-carboxamide]	< 1000	–
Cc1sc2ccc(OCC3CC3)cc2c1C(=O)NC(C)(CO)CO [Cpd 069, 5-(cyclopropylmethoxy)-N-(1,3-dihydroxy-2-methylpropan-2-yl)-2-methyl-1-benzothiophene-3-carboxamide]	< 1000	–
Cc1sc2ccc(OCc3cccnc3C(F)(F)F)cc2c1C(=O)N[C@H](CO)C(N)=O [Cpd 058, (2R)-3-hydroxy-2-[(2-methyl-5-{[2-(trifluoromethyl)pyridin-3-yl]methoxy}-1-benzothiophen-3-yl)formamido]propanamide]	< 1000	–
Cc1sc2ccc(OCc3ccccc3F)cc2c1C(=O)NC1CCNCC1(F)F (single isomer, unassigned) [Cpd 095 - En2, N-(3,3-difluoropiperidin-4-yl)-5-[(2-fluorophenyl)methoxy]-2-methyl-1-benzothiophene-3-carboxamide]	1000 to 20000	–
Cc1ncc(COc2ccc3sc(C)c(C(=O)NC(C)(CO)C(N)=O)c3c2)s1 (single isomer, unassigned) [Cpd 019 - En2, 3-hydroxy-2-methyl-2-({2-methyl-5-[(2-methyl-1,3-thiazol-5-yl)methoxy]-1-benzothiophen-3-yl}formamido)propanamide]	< 1000	–
